Assay results from PubChem BioAssay (NCI).
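Where inhibition never reached the appropriate level, the endpoint shown equals the highest concentration tested. Otherwise, values were interpolated linearly from a five-concentration, 48-hour dose response in 96-well plates. GI50 marks 50% less growth. Definition used: TGI = concentration required for complete inhibition of growth.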

Experiments:
Assay in all cases: NCI-60 cell line screen, 48 h; in the data active = GI50 below about 0.43 µM; inactive = the rest
[1] = tested on: 786-0 renal
[2] = tested on: A498 renal
[3] = tested on: A549 NSCLC
[4] = tested on: ACHN renal
[5] = tested on: BT-549 breast
[6] = tested on: CAKI-1 renal
[7] = tested on: COLO 205 colon
[8] = tested on: DU-145 prostate
[9] = tested on: EKVX NSCLC
[10] = tested on: HCC-2998 colon
[11] = tested on: HCT-116 colon
[12] = tested on: HCT-15 colon
[13] = tested on: HL-60(TB) leukemia
[14] = tested on: HOP-62 NSCLC
[15] = tested on: HOP-92 NSCLC
[16] = tested on: HS 578T breast
[17] = tested on: HT29 colon
[18] = tested on: IGROV1 ovarian
[19] = tested on: K-562 leukemia
[20] = tested on: KM12 colon
[21] = tested on: LOX IMVI melanoma
[22] = tested on: M14 melanoma
[23] = tested on: MALME-3M melanoma
[24] = tested on: MCF7 breast
[25] = tested on: MDA-MB-231 breast
[26] = tested on: MDA-MB-435
[27] = tested on: MOLT-4 leukemia
[28] = tested on: NCI-H226 lung
[29] = tested on: NCI-H23 lung
[30] = tested on: NCI-H460 lung
[31] = tested on: NCI-H522 lung
[32] = tested on: NCI/ADR-RES ovarian
[33] = tested on: OVCAR-3 ovarian
[34] = tested on: OVCAR-4 ovarian
[35] = tested on: OVCAR-5 ovarian
[36] = tested on: OVCAR-8 ovarian
[37] = tested on: PC-3 prostate
[38] = tested on: RXF 393 renal
[39] = tested on: SF-268 CNS
[40] = tested on: SF-295 CNS
[41] = tested on: SF-539 CNS
[42] = tested on: SK-MEL-2 melanoma
[43] = tested on: SK-MEL-28 melanoma
[44] = tested on: SK-MEL-5 melanoma
[45] = tested on: SK-OV-3 ovarian
[46] = tested on: SN12C renal
[47] = tested on: SNB-19 CNS
[48] = tested on: SNB-75 CNS
[49] = tested on: SR leukemia
[50] = tested on: SW-620 colon
[51] = tested on: T-47D breast
[52] = tested on: TK-10 renal
[53] = tested on: U251 CNS
[54] = tested on: UACC-257 melanoma
[55] = tested on: UACC-62 melanoma
[56] = tested on: UO-31 renal

COc1cc(-c2cc(C(=O)N3CCN(C(=O)c4ccccc4NCc4cccs4)CC3)nc3cc(-c4ccccc4)nn23)cc(OC)c1OC
8.01 µM: TGI [38]
15.6 µM: TGI [42]
9.22 µM: TGI [15]
75.4 µM: TGI [13]
27.6 µM: TGI [48]
26.5 µM: TGI [7]
86.7 µM: TGI [14]
inactive: GI50 [1] 11.4 µM | GI50 [2] 8.44 µM | GI50 [3] 5.68 µM | GI50 [4] 4.93 µM | GI50 [5] 6.26 µM | GI50 [6] 2.78 µM | GI50 [7] 4.04 µM | GI50 [8] 5 µM | GI50 [9] 53.9 µM | GI50 [10] 14.3 µM | GI50 [11] 4.49 µM | GI50 [12] 4.43 µM | GI50 [13] 6.15 µM | GI50 [14] 11 µM | GI50 [15] 2.41 µM | GI50 [16] 36.2 µM | GI50 [17] 3.78 µM | GI50 [18] 13.9 µM | GI50 [19] 1.38 µM | GI50 [20] 3.16 µM | GI50 [21] 6.04 µM | GI50 [22] 5.91 µM | GI50 [23] > 100 µM | GI50 [24] 2.56 µM | GI50 [25] 8.67 µM | GI50 [26] 1.16 µM | GI50 [27] 43.7 µM | GI50 [28] 6.39 µM | GI50 [29] 15.7 µM | GI50 [30] 4.26 µM | GI50 [31] 1.67 µM | GI50 [32] 2.6 µM | GI50 [33] 3.03 µM | GI50 [34] 5.55 µM | GI50 [35] 15.1 µM | GI50 [36] 30.3 µM | GI50 [37] 4.18 µM | GI50 [38] 2.45 µM | GI50 [39] 5.93 µM | GI50 [40] 3.78 µM | GI50 [41] 9.85 µM | GI50 [42] 3.73 µM | GI50 [43] 9.62 µM | GI50 [44] 2.85 µM | GI50 [45] 5.5 µM | GI50 [46] 29.1 µM | GI50 [47] 8.99 µM | GI50 [48] 3.32 µM | GI50 [49] 3.31 µM | GI50 [50] 4.7 µM | GI50 [51] 8.38 µM | GI50 [52] 20.6 µM | GI50 [53] 5.76 µM | GI50 [54] > 100 µM | GI50 [55] 2.8 µM | GI50 [56] 6.99 µM
4.68 µM: TGI [31]
17.4 µM: TGI [19]
11.5 µM: TGI [44]
15 µM: TGI [17]
40.6 µM: TGI [8]
8.33 µM: TGI [6]
> 100 µM: TGI [1] | TGI [2] | TGI [3] | TGI [4] | TGI [5] | TGI [9] | TGI [10] | TGI [11] | TGI [12] | TGI [16] | TGI [18] | TGI [20] | TGI [21] | TGI [22] | TGI [23] | TGI [24] | TGI [25] | TGI [27] | TGI [28] | TGI [29] | TGI [30] | TGI [34] | TGI [35] | TGI [36] | TGI [37] | TGI [39] | TGI [40] | TGI [41] | TGI [43] | TGI [45] | TGI [46] | TGI [47] | TGI [49] | TGI [50] | TGI [51] | TGI [52] | TGI [53] | TGI [54] | TGI [55] | TGI [56]
4.34 µM: TGI [26]
11.3 µM: TGI [33]
9.29 µM: TGI [32]
